# Assay results published in ChEMBL document CHEMBL3875162, “Synthesis and biological evaluation of new benzimidazole-thiazolidinedione hybrids as potential cytotoxic and apoptosis inducing agents” (Eur J Med Chem, 2016).
# What was measured:
# [1] = Cytotoxicity against human PC3 cells assessed as cell growth inhibition after 48 hrs by MTT assay; type: functional, cell-based; conditions: PC-3, 48 h
# [2] = Cytotoxicity against human MDA-MB-231 cells assessed as cell growth inhibition after 48 hrs by MTT assay; type: functional, cell-based; conditions: MDA-MB-231, 48 h
# [3] = Cytotoxicity against human DU145 cells assessed as cell growth inhibition after 48 hrs by MTT assay; type: functional, cell-based; conditions: DU-145, 48 h
# [4] = Cytotoxicity against human A549 cells assessed as cell growth inhibition after 48 hrs by MTT assay; type: functional, cell-based; conditions: A549, 48 h
# [5] = Cytotoxicity against human MCF10A cells assessed as cell growth inhibition after 48 hrs by MTT assay; type: toxicity, cell-based, MCF-10A
# A549 = experiment: Selectivity index, ratio of IC50 for human MCF10A cells to IC50 for human A549 cells; type: functional
SMILES,IC50 [1] [µM],IC50 [2] [µM],IC50 [3] [µM],IC50 [4] [µM],IC50 at 48 h [5] [µM],Ratio IC50 (A549)
CC(C)n1c(/C=C2\SC(=O)N(CC(=O)N3CCCCC3)C2=O)nc2ccccc21,> 50,> 50,42.2,28.2,–,–
Cn1c(/C=C2\SC(=O)N(CC(=O)N3CCCCC3)C2=O)nc2ccccc21,> 50,> 50,> 50,> 50,–,–
CC(C)n1c(/C=C2\SC(=O)N(CC(=O)N3CCCC3)C2=O)nc2ccccc21,> 50,> 50,> 50,> 50,–,–
COc1cc2c(cc1OC)CN(C(=O)CN1C(=O)S/C(=C\c3nc4ccccc4n3C(C)C)C1=O)CC2,> 50,30.6,29.7,20.6,> 100,–
O=c1[nH]cc(F)c(=O)[nH]1 [FLUOROURACIL],45.3,36,40.6,30.5,–,–
CC1CN(C(=O)CN2C(=O)S/C(=C\c3nc4ccccc4n3C(C)C)C2=O)CC(C)O1 (centres undefined),> 50,> 50,> 50,> 50,–,–
CCn1c(/C=C2\SC(=O)N(CC(=O)N3CCc4cc(OC)c(OC)cc4C3)C2=O)nc2ccccc21,33.5,> 50,> 50,26.2,–,–
Cn1c(/C=C2\SC(=O)N(CC(=O)N3CCOCC3)C2=O)nc2ccccc21,> 50,> 50,41.1,38.5,–,–
CC1CN(C(=O)CN2C(=O)S/C(=C\c3nc4ccccc4n3C)C2=O)CC(C)O1 (centres undefined),> 50,> 50,> 50,29.4,–,–
CCn1c(/C=C2\SC(=O)N(CC(=O)N3CCCCC3)C2=O)nc2ccccc21,> 50,> 50,> 50,> 50,–,–
CCn1c(/C=C2\SC(=O)N(CC(=O)N3CC(C)OC(C)C3)C2=O)nc2ccccc21 (centres undefined),> 50,> 50,> 50,> 50,–,–
COc1cc2c(cc1OC)CN(C(=O)CN1C(=O)S/C(=C\c3nc4ccccc4n3C)C1=O)CC2,41.1,36,37.5,13.3,> 100,–
CCn1c(/C=C2\SC(=O)N(CC(=O)Nc3cc(C(C)(C)C)on3)C2=O)nc2ccccc21,> 50,> 50,> 50,44.8,–,–
Cn1c(/C=C2\SC(=O)N(CC(=O)Nc3cc(C(C)(C)C)on3)C2=O)nc2ccccc21,> 50,33.8,31.4,15.3,38.7,2.5
CCn1c(/C=C2\SC(=O)N(CC(=O)N3CCCC3)C2=O)nc2ccccc21,> 50,> 50,45.1,31.2,–,–
Cn1c(/C=C2\SC(=O)N(CC(=O)N3CCCC3)C2=O)nc2ccccc21,> 50,> 50,> 50,> 50,–,–
CCn1c(/C=C2\SC(=O)N(CC(=O)Nc3nc(-c4ccccc4)cs3)C2=O)nc2ccccc21,> 50,> 50,> 50,> 50,–,–
CC(C)n1c(/C=C2\SC(=O)N(CC(=O)Nc3cc(C(C)(C)C)on3)C2=O)nc2ccccc21,> 50,> 50,> 50,> 50,–,–
CC(C)n1c(/C=C2\SC(=O)N(CC(=O)N3CCOCC3)C2=O)nc2ccccc21,> 50,> 50,> 50,> 50,–,–
CCn1c(/C=C2\SC(=O)N(CC(=O)N3CCOCC3)C2=O)nc2ccccc21,> 50,> 50,> 50,> 50,–,–
